Literature values, collected in the PKSmart pharmacokinetics tables (Seal et al. 2025).

Assay: not given per row; by the article one of three: Lombardo et al. 2013, J Clin Pharmacol 53:178, doi 10.1177/0091270012440282; 'New Drugs at FDA', novel drug approvals for 2021 and 2022 (the article's reference 43); Yap, Li, Chen 2006, J Mol Graph Model 24:383, doi 10.1016
Conditions: human; in vivo

First: C[C@]12C=CC(=O)N[C@@H]1CC[C@@H]1[C@H]2CC[C@]2(C)C(C(=O)Nc3cc(C(F)(F)F)ccc3C(F)(F)F)CC[C@@H]12 (stereo not given in full)
Second: C[C@](O)(CS(=O)(=O)c1ccc(F)cc1)C(=O)Nc1ccc(C#N)c(C(F)(F)F)c1
The clearance of the first is 26-fold lower: 0.14 mL/min/kg for the first, 3.67 mL/min/kg for the second.

Going from `CC[C@H](CO)NCCN[C@@H](CC)CO` to `OCC(O)CO`, the clearance falls from 8.05 mL/min/kg to 3.55 mL/min/kg (2.3-fold).

First: CCN(CC)CCC[C@@H](C)Nc1ccnc2cc(Cl)ccc12
Second: CCCCCCCN(CC)CCC[C@@H](O)c1ccc(NS(C)(=O)=O)cc1
The clearance of the first is 4.1-fold lower: 7.09 mL/min/kg for the first, 29 mL/min/kg for the second.

Compared with `O=C(O)c1ccccc1Nc1cccc(C(F)(F)F)c1`, `C[C@H](CCc1ccccc1)NC[C@@H](O)c1ccc(O)c(C(N)=O)c1` is 20-fold higher in clearance: 1.43 mL/min/kg for the first, 28.1 mL/min/kg for the second.

`CC(C)(C)NC[C@@H](O)COc1cccc2c1C[C@H](O)[C@@H](O)C2` and `CC(C)(C)NC[C@@H](O)c1cc(O)cc(O)c1` are within 1.5-fold of each other in clearance: 2.94 mL/min/kg for the first, 4 mL/min/kg for the second.

First: CC(=O)OCC(CCn1cnc2cnc(N)nc21)COC(C)=O
Second: CCCCCOC(=O)Nc1nc(=O)n([C@@H]2O[C@H](C)[C@@H](O)[C@H]2O)cc1F
The clearance of the first is 7.5-fold lower: 8 mL/min/kg for the first, 59.7 mL/min/kg for the second.

Compared with `CCOc1ncc(C)c2c1[C@H](c1ccc(C#N)cc1OC)C(C(N)=O)C(C)=N2` (stereo not given in full), `COc1ccc2c(c1)N[C@@H]([S@@+](O)Cc1ncc(C)c(OC)c1C)N2` is 1.8-fold lower in clearance: 6.94 mL/min/kg for the first, 3.81 mL/min/kg for the second.

Going from `NC(=O)N1c2ccccc2C=Cc2ccccc21` to `O=C(O)CN1C(=O)C(NC(CCc2ccccc2)C(=O)O)CCc2ccccc21` (stereo not given), the clearance falls from 1.11 mL/min/kg to 0.35 mL/min/kg (3.2-fold).

`CC/C(=C(/c1ccccc1)c1ccc(OCCN(C)C)cc1)c1ccccc1` and `CN(C)CCOc1ccc(/C(=C(\CCCl)c2ccccc2)c2ccccc2)cc1` are within 1.5-fold of each other in clearance: 1.4 mL/min/kg for the first, 1.21 mL/min/kg for the second.

Going from `CC(C)[N+](C)(CCOC(=O)C1c2ccccc2Oc2ccccc21)C(C)C` to `O=C(O)CCCCCCNC1c2ccccc2CCc2ccccc21`, the clearance rises from 18.9 mL/min/kg to 29.6 mL/min/kg (1.6-fold).

First: CCC1(CCC(C)C)C(=O)NC(=O)NC1=O
Second: C[C@H](CN1CC(=O)NC(=O)C1)N1CC(=O)NC(=O)C1
The clearance of the first is 13-fold lower: 0.35 mL/min/kg for the first, 4.42 mL/min/kg for the second.

First: NC(C(=O)NC1C(=O)N2C(C(=O)O)=C(Cl)CC[C@@H]12)c1ccccc1 (stereo not given in full)
Second: CC(=O)OCC1=C(C(=O)O)N2C(=O)C(NC(=O)Cc3cccs3)[C@@H]2SC1 (stereo not given in full)
The clearance of the first is 1.5-fold lower: 4.45 mL/min/kg for the first, 6.7 mL/min/kg for the second.

First: Cc1ccccc1OC[C@@H](O)CNCCOc1ccc(C(N)=O)cc1
Second: Cc1ccc(C(=O)c2ccc(CC(=O)O)n2C)cc1
The clearance of the first is 8.3-fold higher: 10.8 mL/min/kg for the first, 1.3 mL/min/kg for the second.

Compared with `CC(NC(C)(C)C)C(=O)c1cccc(Cl)c1` (stereo not given), `NC[C@H](CC(=O)O)c1ccc(Cl)cc1` is 13-fold lower in clearance: 36 mL/min/kg for the first, 2.72 mL/min/kg for the second.

Compared with `O=[P@@]1(N(CCCl)CCCl)NCCCO1`, `CCCC(NC(C)C(=O)N1C(C(=O)O)C[C@@H]2CCCC[C@H]21)C(=O)OCC` (stereo not given in full) is 2.4-fold higher in clearance: 2.54 mL/min/kg for the first, 6.19 mL/min/kg for the second.

First: Cc1cn([C@@H]2C=C[C@H](CO)O2)c(=O)[nH]c1=O
Second: O=C(O)C1/C(=C\CO)O[C@H]2CC(=O)N12 (stereo not given in full)
The clearance of the first is 2.3-fold higher: 8.24 mL/min/kg for the first, 3.6 mL/min/kg for the second.

Compared with `CO[C@]1(NC(O)=c2sc(=C(C(N)=O)C(=O)O)s2)C(=O)N2C(C(=O)O)=C(CSc3nnnn3C)CS[C@@H]21`, `CO[C@]1(NC(=O)CSCC#N)C(=O)N2C(C(=O)O)=C(CSc3nnnn3C)CS[C@H]21` is 2.9-fold higher in clearance: 0.63 mL/min/kg for the first, 1.84 mL/min/kg for the second.

First: CN[C@H]1CC[C@H](c2ccc(Cl)c(Cl)c2)c2ccccc21
Second: Fc1ccc([C@H]2CCNC[C@@H]2COc2ccc3c(c2)OCO3)cc1
The clearance of the first is 5.6-fold higher: 38 mL/min/kg for the first, 6.8 mL/min/kg for the second.

Compared with `COC(=O)C1[C@H](OC(=O)c2ccccc2)CC2CC[C@@H]1N2C` (stereo not given in full), `C[C@@H](O)C1C(=O)N2C(C(=O)O)=C(S[C@H]3CNC(C(=O)Nc4cccc(C(=O)O)c4)C3)[C@H](C)[C@@H]12` (stereo not given in full) is 80-fold lower in clearance: 32 mL/min/kg for the first, 0.4 mL/min/kg for the second.

Going from `CC(=O)OCC1=C(C(=O)O)N2C(=O)C(NC(=O)CSc3ccncc3)[C@@H]2SC1` (stereo not given in full) to `CC(C)(ON=C(C(=O)CC1C(=O)N2C(C(=O)O)=C(C[n+]3ccccc3)CS[C@H]12)c1csc(N)n1)C(=O)[O-]` (stereo not given in full), the clearance falls from 6.36 mL/min/kg to 1.88 mL/min/kg (3.4-fold).

Going from `Cc1nc2ccc(CN(C)c3ccc(C(=O)NC(CCC(=O)O)C(=O)O)s3)cc2c(=O)[nH]1` (stereo not given) to `CN(C)CCC(c1ccccc1)c1ccccn1` (stereo not given), the clearance rises from 0.59 mL/min/kg to 2.14 mL/min/kg (3.6-fold).

`O=C(OCCN1CCCCCC1)C(c1ccsc1)C1CCCCC1` (stereo not given) and `CN1CC[C@@]23c4c5ccc(O)c4OC2C(=O)CC[C@@H]3[C@@H]1C5` (stereo not given in full) are within 1.5-fold of each other in clearance: 18.3 mL/min/kg for the first, 19.2 mL/min/kg for the second.

First: COc1cc(Cc2cnc(N)nc2N)cc(OC)c1Br
Second: COc1c(N2CCN[C@@H](C)C2)c(F)cc2c(=O)c(C(=O)O)cn(C3CC3)c12
The clearance of the first is 4.8-fold lower: 0.6 mL/min/kg for the first, 2.85 mL/min/kg for the second.

Going from `Cc1c(C(C)C)c(=O)n(-c2ccccc2)n1C` to `CC1=C(/C=C/C(C)=C/C=C/C(C)=C/C(=O)Nc2ccc(O)cc2)C(C)(C)CCC1`, the clearance rises from 11 mL/min/kg to 23.5 mL/min/kg (2.1-fold).

First: NC(=O)c1ncn([C@H]2O[C@H](CO)[C@@H](O)[C@@H]2O)c1N
Second: Nc1nc(=O)c2c([nH]1)N[C@@H]1O[C@@H]3COP(=O)(O)O[C@@H]3C(O)(O)[C@@H]1N2
The clearance of the first is 14-fold higher: 41.7 mL/min/kg for the first, 3.02 mL/min/kg for the second.

Going from `CN(C[C@H](O)CO)C(=O)c1c(I)c(NC(=O)C(CO)CO)c(I)c(C(=O)N(C)C[C@H](O)CO)c1I` to `CCOC(=O)NNc1ccc(N(CC)C[C@@H](C)O)nn1`, the clearance rises from 1.33 mL/min/kg to 3.79 mL/min/kg (2.8-fold).

For `NS(=O)(=O)c1cc2c(cc1Cl)N=CNS2(=O)=O`, the clearance is listed as 4.5 mL/min/kg.

Going from `CCOc1ncc(C)c2c1[C@H](c1ccc(C#N)cc1OC)C(C(N)=O)C(C)=N2` (stereo not given in full) to `Cc1cc(C=CC#N)cc(C)c1Nc1ccnc(Nc2ccc(C#N)cc2)n1`, the Vd rises from 0.88 L/kg to 2.71 L/kg (3.1-fold).

In the case of `Nc1nc(=O)c2c([nH]1)N[C@@H]1O[C@@H]3COP(=O)(O)O[C@@H]3C(O)(O)[C@@H]1N2`, the Vd is given as 0.3 L/kg.

First: CCOc1ncc(C)c2c1[C@H](c1ccc(C#N)cc1OC)C(C(N)=O)C(C)=N2 (stereo not given in full)
Second: Cc1cc(C=CC#N)cc(C)c1Nc1ccnc(Nc2ccc(C#N)cc2)n1
The half-life of the first is 18-fold lower: 2.5 h for the first, 44.5 h for the second.

Compared with `CC(=O)C1CC[C@H]2[C@@H]3CC[C@H]4C[C@](C)(O)CC[C@]4(C)[C@H]3CC[C@]12C` (stereo not given in full), `Nc1nc(=O)c2c([nH]1)N[C@@H]1O[C@@H]3COP(=O)(O)O[C@@H]3C(O)(O)[C@@H]1N2` is 23-fold lower in half-life: 34 h for the first, 1.45 h for the second.
